Measurements from paper PMC10455339, “Combining the Peptide RWQWRWQWR and an Ethanolic Extract of Bidens pilosa Enhances the Activity against Sensitive and Resistant Candida albicans and C. auris Strains” (Journal of Fungi, 2023).
In brackets after ≈: the same amount, converted by molar mass. Like-named read-outs stand apart in the source and are kept apart here.

Columns and labels:
C. albicans 256-PUJ-HUSI = test: Antifungal activity (MIC/MFC), broth microdilution; format: cell-based, Candida albicans; conditions: Candida albicans, 256PUJHUSI, FLC-resistant isolate, n = 3; for MIC: CLSI M27-A4 modified, RPMI 1640, 37 °C, 48 h, MIC = 50% growth inhibition, read-out: MIC; for MFC: subculture on SDA 24 h 37 °C, MFC = eliminates 100% of growth, read-out: MFC
Protocol: (§1) For the determination of the MICs, the guidelines of the Clinical Laboratory Standards Institute (CLSI BMD-M27-A4) were used with some modifications. Serial dilutions were made, for peptides from 6.25 to 200 µg/mL and for extracts from 31.2 to 2000 µg/mL, with RPMI 1640 medium in a 96-well microdilution plate (100 µL), and then 100 µL of the adjusted inoculum (0.5–2.5 × 10^3 cells/mL) was added and incubated at 37 °C, and visual and spectrophotometric reading (595 nm) was performed at 48 h. Controls: growth control in RPMI or DMSO, control with a known antifungal: FLC, C. albicans SC5314 (1 µg/mL), C. albicans 256 (64 µg/mL), C. auris 435 (8 µg/mL), and C. auris 537 (128 µg/mL), sterility controls correspond to RPMI medium and SS. The MIC was defined as the minimum concentration of peptide or extract that inhibited 50% of growth compared to the control. To determine the minimal fungicidal concentration (MFC), from the concentrations where no growth was observed, including the controls, a subculture was made on SDA and incubated for 24 h at 37 °C. The MFC was defined as the minimum concentration of peptide or extract that eliminated 100% of the growth compared to the control (n = 3).

C. auris 537-PUJ-HUSI = test: Antifungal activity (MIC/MFC), broth microdilution; format: cell-based, Candida auris; conditions: Candidozyma auris, 537PUJHUSI, FLC- and AmB-resistant isolate, n = 3; for MIC: CLSI M27-A4 modified, RPMI 1640, 37 °C, 48 h, MIC = 50% growth inhibition, read-out: MIC; for MFC: subculture on SDA 24 h 37 °C, MFC = eliminates 100% of growth, read-out: MFC
Protocol: as §1

C. auris 435-PUJ-HUSI = test: Antifungal activity (MIC/MFC), broth microdilution; format: cell-based, Candida auris; conditions: Candidozyma auris, 435PUJHUSI, FLC-sensitive isolate, n = 3; for MIC: CLSI M27-A4 modified, RPMI 1640, 37 °C, 48 h, MIC = 50% growth inhibition, read-out: MIC; for MFC: subculture on SDA 24 h 37 °C, MFC = eliminates 100% of growth, read-out: MFC
Protocol: as §1

C. albicans SC5314 [1] = test: microbe, parasite or virus in culture; format: cell-based, Candida albicans; conditions: Candida albicans, SC5314, n = 3; for MIC: CLSI M27-A4 modified, RPMI 1640, 37 °C, 48 h, MIC = 50% growth inhibition, read-out: MIC; for MFC: subculture on SDA 24 h 37 °C, MFC = eliminates 100% of growth, read-out: MFC
Protocol: as §1

C. albicans 256 [2] = conditions: previously published, cited from earlier work
Protocol: (§2) Table 5 Synergy test. Combination of R-1-R with FLC against C. albicans and C. auris. | column: MICR-1-R; MICFLC; R-1-R; FLC; FIC Index; MICR-1-R/R-1-R; MICFLC/FLC || Initially, the antifungal activity of mixtures of R-1-R/FLC against the C. albicans and C. auris strains was evaluated (Table 5). […] The MIC value of FLC in C. albicans SC5314 was reduced by a factor of 2, while that in C. albicans 256 was reduced by a factor of 8.

C. auris 537 [3] = conditions: previously published, cited from earlier work
Protocol: as §2

C. albicans 256 [4] = tested on: C. albicans 256
Protocol: (§3) This was performed using the checkerboard test, with some adjustments. Briefly, peptide or extract with FLC, peptide with extract, and extract, peptide, and FLC (final concentrations: 0, 0.06, 0.12, 0.25, 0.50, 1, and 2 times the MIC) were mixed. […] The fractional inhibitory concentration index (FIC I) was calculated as follows: [A/MIC A] + [P/MIC P] = FIC I, where MIC A and MIC P are the MICs of the individual peptide, extract, and/or antifungal. A and P are the MICs of the same, but in combination.
(§4) The combinations were classified as synergistic (FIC I ≤ 0.5), additive (FIC I > 0.5–1), indifferent (FIC I > 1 < 4), or antagonistic (FIC I > 4).

C. auris 537 [5] = tested on: C. auris 537
Protocol: as §3, §4

C. albicans SC5314 [6] = tested on: C. albicans SC5314
Protocol: as §3, §4

C. auris 435 = tested on: C. auris 435
Protocol: as §3, §4

C. albicans = conditions: cited from earlier work
Text: Antifungal activity of other phenolic acids, such as chlorogenic acid, has been reported against Candida spp. resistant to FLC, generating a death process similar to apoptosis.

[7] = B. pilosa extract combined with FLC
[8] = B. pilosa extract combined with FLC, checkerboard, 37 °C, 48 h
[9] = B. pilosa extract, R-1-R and FLC combined
[10] = B. pilosa extract, R-1-R and FLC combined, checkerboard, 37 °C, 48 h
[11] = R-1-R combined with FLC, checkerboard, 37 °C, 48 h

With O=C(O)/C=C/c1ccc(O)c(O)c1 [Caffeic acid] the MIC (C. albicans 256-PUJ-HUSI) was > 2000 µg/mL, the MFC (C. albicans 256-PUJ-HUSI) was > 2000 µg/mL and the MIC (C. auris 537-PUJ-HUSI) was > 2000 µg/mL. For the same molecule, the MFC (C. auris 537-PUJ-HUSI) was > 2000 µg/mL, the MIC (C. auris 435-PUJ-HUSI) was > 2000 µg/mL and the MFC (C. auris 435-PUJ-HUSI) was > 2000 µg/mL. The MIC (C. albicans SC5314 [1]) was > 2000 µg/mL and the MFC (C. albicans SC5314 [1]) was > 2000 µg/mL.

In the case of O=C(/C=C/c1ccc(O)c(O)c1)O[C@@H](C(=O)O)[C@@H](O)C(=O)O [Caftaric acid], the MIC (C. albicans 256-PUJ-HUSI) is reported as > 1000 µg/mL, the MFC (C. albicans 256-PUJ-HUSI) is reported as > 1000 µg/mL and the MIC (C. auris 537-PUJ-HUSI) is reported as > 1000 µg/mL. For the same molecule, the MFC (C. auris 537-PUJ-HUSI) was > 1000 µg/mL, the MIC (C. auris 435-PUJ-HUSI) was > 1000 µg/mL and the MFC (C. auris 435-PUJ-HUSI) was > 1000 µg/mL. For the same molecule, the MIC (C. albicans SC5314 [1]) was > 1000 µg/mL and the MFC (C. albicans SC5314 [1]) was > 1000 µg/mL.

In the case of O=C(/C=C/c1ccc(O)c(O)c1)O[C@@H]1C[C@](O)(C(=O)O)C[C@@H](O)[C@H]1O [Chlorogenic acid], the MIC (C. albicans 256-PUJ-HUSI) is reported as > 1000 µg/mL, the MFC (C. albicans 256-PUJ-HUSI) is reported as > 1000 µg/mL and the MIC (C. auris 537-PUJ-HUSI) is reported as > 1000 µg/mL. The MFC (C. auris 537-PUJ-HUSI) was > 1000 µg/mL, the MIC (C. auris 435-PUJ-HUSI) was > 1000 µg/mL and the MFC (C. auris 435-PUJ-HUSI) was > 1000 µg/mL. The MIC (C. albicans SC5314 [1]) was > 1000 µg/mL and the MFC (C. albicans SC5314 [1]) was > 1000 µg/mL.

For OC(Cn1cncn1)(Cn1cncn1)c1ccc(F)cc1F [FLC, fluconazole], the “MIC alone/MIC in combination (factor of potentiation)” value (“MIC alone/MIC in combination” for short) (C. albicans 256 [2]; R-1-R combined with FLC) is listed as 8, the “MIC in combination (R-1-R, FLC)” value (C. albicans 256 [2]; R-1-R combined with FLC) is listed as 4 µg/mL and the “MIC of the agent alone (MICR-1-R, MICFLC)” value (C. albicans 256 [2]; checkerboard R-1-R + FLC) is listed as 32 µg/mL. The “MIC alone/MIC in combination” value (C. auris 537 [3]; R-1-R combined with FLC) was 8, the “MIC in combination (R-1-R, FLC)” value (C. auris 537 [3]; R-1-R combined with FLC) was 8 µg/mL and the “MIC of the agent alone (MICR-1-R, MICFLC)” value (C. auris 537 [3]; checkerboard R-1-R + FLC) was 64 µg/mL. For the same molecule, the “MIC alone/MIC in combination” value (C. albicans 256 [4]; [7]) was 4, the “MIC in combination (E, FLC)” value (C. albicans 256 [4]; [8]) was 32 µg/mL and the “MIC alone/MIC in combination” value (C. albicans 256 [4]; [9]) was 8. For the same molecule, the “MIC in combination (E, R-1-R, FLC)” value (C. albicans 256 [4]; [10]) was 4 µg/mL, the “MIC alone/MIC in combination” value (C. auris 537 [5]; [7]) was 4 and the “MIC in combination (E, FLC)” value (C. auris 537 [5]; [8]) was 32 µg/mL. For the same molecule, the “MIC alone/MIC in combination” value (C. auris 537 [5]; [9]) was 16, the “MIC in combination (E, R-1-R, FLC)” value (C. auris 537 [5]; [10]) was 8 µg/mL and the “MIC alone/MIC in combination” value (C. albicans SC5314 [6]; [7]) was 2. For the same molecule, the “MIC in combination (E, FLC)” value (C. albicans SC5314 [6]; [8]) was 0.125 µg/mL, the “MIC alone/MIC in combination” value (C. albicans SC5314 [6]; [9]) was 8 and the “MIC in combination (E, R-1-R, FLC)” value (C. albicans SC5314 [6]; [10]) was 0.06 µg/mL. The “MIC alone/MIC in combination” value (C. albicans SC5314 [6]; R-1-R combined with FLC) was 2, the “MIC in combination (R-1-R, FLC)” value (C. albicans SC5314 [6]; [11]) was 0.0625 µg/mL and the “MIC alone/MIC in combination” value (C. auris 435; [7]) was 1. For the same molecule, the “MIC in combination (E, FLC)” value (C. auris 435; [8]) was 8 µg/mL, the “MIC alone/MIC in combination” value (C. auris 435; [9]) was 4 and the “MIC in combination (E, R-1-R, FLC)” value (C. auris 435; [10]) was 1 µg/mL. The “MIC alone/MIC in combination” value (C. auris 435; R-1-R combined with FLC) was 4 and the “MIC in combination (R-1-R, FLC)” value (C. auris 435; [11]) was 2 µg/mL.

Work on O=C(O)c1cc(O)c(O)c(O)c1 [Gallic acid] yielded an MIC (C. albicans 256-PUJ-HUSI) of 62.5 µg/mL (≈ 0.367 mM), an MFC (C. albicans 256-PUJ-HUSI) of 125 µg/mL (≈ 0.735 mM) and an MIC (C. auris 537-PUJ-HUSI) of 62.5 µg/mL (≈ 0.367 mM). The MFC (C. auris 537-PUJ-HUSI) was 1000 µg/mL (≈ 5.88 mM), the MIC (C. auris 435-PUJ-HUSI) was 125 µg/mL (≈ 0.735 mM) and the MFC (C. auris 435-PUJ-HUSI) was 1000 µg/mL (≈ 5.88 mM). For the same molecule, the MIC (C. albicans SC5314 [1]) was 125 µg/mL (≈ 0.735 mM) and the MFC (C. albicans SC5314 [1]) was 250 µg/mL (≈ 1.47 mM).

With C[C@@H]1O[C@@H](OC[C@H]2O[C@@H](Oc3c(-c4ccc(O)c(O)c4)oc4cc(O)cc(O)c4c3=O)[C@H](O)[C@@H](O)[C@@H]2O)[C@H](O)[C@H](O)[C@H]1O [Rutin] the MIC (C. albicans 256-PUJ-HUSI) was > 2000 µg/mL, the MFC (C. albicans 256-PUJ-HUSI) was > 2000 µg/mL and the MIC (C. auris 537-PUJ-HUSI) was > 2000 µg/mL. For the same molecule, the MFC (C. auris 537-PUJ-HUSI) was > 2000 µg/mL, the MIC (C. auris 435-PUJ-HUSI) was > 2000 µg/mL and the MFC (C. auris 435-PUJ-HUSI) was > 2000 µg/mL. The Reported active concentration (C. albicans) was 1000 µg/mL, the MIC (C. albicans SC5314 [1]) was > 2000 µg/mL and the MFC (C. albicans SC5314 [1]) was > 2000 µg/mL.

In the case of “FKCRRWQWRM [Peptide 2, short peptide derived from LfcinB, …]”, the MIC (C. albicans; reported against other C. albicans strains) is listed as 17.3 to 17.5 µM.

For “FKCRRWQWRMKKLGA [LfcinB-20, short peptide derived from LfcinB, printed …]”, the MIC (C. albicans; reported against C. albicans strains) is given as 8 µg/mL.
